The target in assay [1] is T1, Sigma intracellular receptor 2 (Rattus norvegicus, UniProt Q5U3Y7).
T1 sequence (Q5U3Y7 whole entry): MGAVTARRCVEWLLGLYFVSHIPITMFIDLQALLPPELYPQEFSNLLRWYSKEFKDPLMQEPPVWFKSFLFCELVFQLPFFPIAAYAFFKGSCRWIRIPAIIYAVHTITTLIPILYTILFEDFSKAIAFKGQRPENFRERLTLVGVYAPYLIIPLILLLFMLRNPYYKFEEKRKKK
The class given is cell membranes, Sprague-Dawley, Brain, Membrane.

Assay [2] addresses T2, Sigma non-opioid intracellular receptor 1 (Rattus norvegicus, UniProt Q9R0C9). The class given is cell membranes, Sprague-Dawley, Brain, Membrane.
The target of assay [3] is T1, Sigma intracellular receptor 2. The assay is described as follows: Displacement of [3H]DTG from sigma2 receptor in Wistar Hannover rat liver membranes incubated for 120 mins by solid scintillation counting method. The class given is cell membranes, Membrane. Background: Loss of bound radioactivity is the signal in a displacement assay; it reports binding, not function.

The nature of assay [4]: Selectivity ratio of Ki for sigma2 receptor in Wistar Hannover rat liver membranes to Ki for sigma 1 receptor in Dunkin guinea pig brain membranes. The class given is cell membranes.
For assay [5], the target named is T3, Sigma non-opioid intracellular receptor 1 (Cavia porcellus, UniProt Q60492). The assay is described as follows: Displacement of [3H]-(+)-pentazocine from sigma 1 receptor in Dunkin guinea pig brain membranes incubated for 120 mins by scintillation counting method. The class given is cell membranes, Membrane.
In assay [6] the target is Muscarinic acetylcholine receptor M2 (Homo sapiens, UniProt P08172). The assay can be described thus: Binding affinity to muscarinic acetylcholine receptor M2 (unknown origin).
Assay [7] concerns the target Muscarinic acetylcholine receptor M1 (Homo sapiens, UniProt P11229). The assay is described as follows: Binding affinity to muscarinic acetylcholine receptor M1 (unknown origin).
For assay [8], the target named is Muscarinic acetylcholine receptor M4 (Homo sapiens, UniProt P08173). The assay can be described thus: Binding affinity to muscarinic acetylcholine receptor M4 (unknown origin).
In assay [9] the target is T4, Sigma non-opioid intracellular receptor 1 (Homo sapiens, UniProt Q99720). The assay can be described thus: Binding affinity to sigma-1 receptor (unknown origin).
The target of assay [10] is Muscarinic acetylcholine receptor M3 (Homo sapiens, UniProt P20309). The assay can be described thus: Binding affinity to muscarinic acetylcholine receptor M3 (unknown origin).
Assay [11] can be described thus: Selectivity ratio of Ki for displacement of [3H]DTG from sigma2 receptor in rat liver membranes to Ki for displacement of [3H]-(+)-pentazocine from sigma1 receptor in guinea pig brain cortex membranes. The class given is cell membranes.
Assay [12] concerns the target T3, Sigma non-opioid intracellular receptor 1. The assay can be described thus: Displacement of [3H]-(+)-pentazocine from sigma1 receptor in guinea pig brain cortex membranes incubated for 120 mins by solid scintillation counting method. The class given is cell membranes, Membrane.
The target in assay [13] is T1, Sigma intracellular receptor 2. The assay can be described thus: Displacement of [3H]DTG from sigma2 receptor in rat liver membranes incubated for 120 mins by solid scintillation counting method. The class given is cell membranes, Membrane.
For assay [14] the target is unchanged. The assay is described as follows: Displacement of [3H]DTG from sigma 2 receptor in rat liver membranes incubated for 60 mins in presence of [3H]-(+)-pentazocine by radioactivity method. The class given is cell membranes, Membrane.
Assay [15] addresses T2, Sigma non-opioid intracellular receptor 1. The assay is described as follows: Displacement of [3H]-(+)-pentazocine from sigma 1 receptor in rat liver membranes incubated for 60 mins […] by radioactivity method. The class given is cell membranes, Membrane.
Assay [16] has as its target Alpha-2A adrenergic receptor (Homo sapiens, UniProt P08913). The assay is described as follows: Binding affinity to alpha 2A adrenoceptor (unknown origin).
Assay [17] addresses Sigma intracellular receptor 2 (Homo sapiens, UniProt Q5BJF2). The assay can be described thus: Binding affinity to sigma-2 receptor (unknown origin).
A short description of assay [18]: Selectivity ratio of Ki for displacement of [3H]DTG from sigma2 receptor in rat PC12 cells to Ki for displacement of [3H]-(+)-pentazocine from sigma1 receptor in guinea pig brain homogenate. The class given is cell-based.
In assay [19] the target is T5, Sodium-dependent noradrenaline transporter (Homo sapiens, UniProt P23975). The assay is described as follows: Displacement of [3H]nisoxetine from norepinephrine transporter (unknown origin) by liquid scintillation counting method.
The target of assay [20] is Sodium-dependent serotonin transporter (Homo sapiens, UniProt P31645). The assay can be described thus: Displacement of [3H]citalopram from serotonin transporter (unknown origin) by liquid scintillation counting method.
Assay [21] deals with T6, Sodium-dependent dopamine transporter (Homo sapiens, UniProt Q01959). The assay can be described thus: Displacement of [3H]WIN35428 from dopamine transporter (unknown origin) by liquid scintillation counting method.
Assay [22] deals with T3, Sigma non-opioid intracellular receptor 1. The assay is described as follows: Displacement of [3H]-(+)-pentazocine from sigma 1 receptor in guinea pig brain cortex membranes incubated for 120 mins by solid scintillation counting method. The class given is cell membranes, Membrane.
In assay [23] the target is T5, Sodium-dependent noradrenaline transporter. The assay is described as follows: Inhibition of radioligand binding to noradrenaline transporter (unknown origin) at 1 uM relative to control.
The target in assay [24] is Histamine H2 receptor (Homo sapiens) (UniProt P25021). The assay is described as follows: Inhibition of radioligand binding to histamine H2 receptor (unknown origin) at 1 uM relative to control.
Assay [25] concerns the target D(4) dopamine receptor (Homo sapiens) (UniProt P21917). The assay is described as follows: Inhibition of radioligand binding to dopamine D4 receptor (unknown origin) at 1 uM relative to control.
The target in assay [26] is T6, Sodium-dependent dopamine transporter. The assay is described as follows: Inhibition of radioligand binding to dopamine transporter (unknown origin) at 1 uM relative to control.
Assay [27] concerns the target T3, Sigma non-opioid intracellular receptor 1. The assay is described as follows: Displacement of [3H]-(+)-pentazocine from sigma 1 receptor in Dunkin-Hartley guinea pig brain membranes incubated for 180 mins by liquid scintillation counting method. The class given is cell membranes, Membrane.
The next assay deals with Histamine H3 receptor (Rattus norvegicus, UniProt Q9QYN8). The assay is described as follows: Displacement of [3H]-methylhistamine from Histamine H3 receptor in rat cerebral cortex incubated for 30 min by liquid scintillation counting method. The class given is tissue-based.
A short description of assay [28]: Displacement of [3H]-dio-tolylguanidine from Sigma 2 receptor in Dunkin-Hartley guinea pig brain membrane incubated for 120 mins in presence of sigma1 blocker (+)-SKF-10047 by liquid scintillation counting method. The class given is cell membranes, Cavia porcellus.
Another assay is filed under the species Cavia porcellus. The assay can be described thus: Selectivity ratio of Ki for sigma 2 receptor in Dunkin-Hartley guinea pig brain membranes to Ki for sigma 1 receptor in Dunkin-Hartley guinea pig brain membrane.
Assay [29] deals with T4, Sigma non-opioid intracellular receptor 1.
Assay [30] can be described thus: Displacement of [3H]DTG from sigma2 receptor in guinea pig brain membranes by scintillation counting method. The class given is cell membranes, Cavia porcellus, Membrane.
Assay [31] has as its target Sigma non-opioid intracellular receptor 1 (Mus musculus, UniProt O55242). The assay is described as follows: Inhibition of radioligand binding to sigma1 receptor in C57BL/6 mouse brain membranes. The class given is cell membranes, Membrane.
Assay [32] deals with Sigma intracellular receptor 2 (Mus musculus, UniProt Q8VD00). The assay can be described thus: Inhibition of radioligand binding to sigma2 receptor in C57BL/6 mouse brain membranes. The class given is cell membranes, Membrane.
Assay [33] concerns the target Kappa-type opioid receptor (Homo sapiens, UniProt P41145). The assay is described as follows: Binding affinity to kappa opioid receptor (unknown origin).

This is an account of results in ChEMBL document CHEMBL4715859, “Small Molecules Selectively Targeting Sigma-1 Receptor for the Treatment of Neurological Diseases” (J Med Chem, 2020).

Some results are limits rather than exact numbers.

T3 sequence (Q60492 whole entry): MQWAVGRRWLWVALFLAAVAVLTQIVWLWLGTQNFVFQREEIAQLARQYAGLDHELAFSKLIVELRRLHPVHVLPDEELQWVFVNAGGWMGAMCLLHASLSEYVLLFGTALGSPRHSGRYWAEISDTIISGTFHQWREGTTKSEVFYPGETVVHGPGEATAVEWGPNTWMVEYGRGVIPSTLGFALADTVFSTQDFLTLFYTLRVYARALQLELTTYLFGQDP
T4 sequence (Q99720 whole entry): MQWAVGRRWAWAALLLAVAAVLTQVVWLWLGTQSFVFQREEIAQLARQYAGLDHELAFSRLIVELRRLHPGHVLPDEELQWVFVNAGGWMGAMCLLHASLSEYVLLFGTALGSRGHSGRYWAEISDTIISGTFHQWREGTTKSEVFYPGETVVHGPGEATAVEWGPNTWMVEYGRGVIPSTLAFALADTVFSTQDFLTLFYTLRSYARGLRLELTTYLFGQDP
T2 sequence (Q9R0C9 whole entry): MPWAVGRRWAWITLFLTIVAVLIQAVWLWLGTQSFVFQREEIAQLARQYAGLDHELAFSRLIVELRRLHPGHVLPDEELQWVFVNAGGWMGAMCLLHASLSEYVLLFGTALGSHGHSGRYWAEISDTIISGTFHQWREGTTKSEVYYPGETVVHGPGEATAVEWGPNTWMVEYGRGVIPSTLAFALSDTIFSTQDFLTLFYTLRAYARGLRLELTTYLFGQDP
T5 sequence (P23975 whole entry): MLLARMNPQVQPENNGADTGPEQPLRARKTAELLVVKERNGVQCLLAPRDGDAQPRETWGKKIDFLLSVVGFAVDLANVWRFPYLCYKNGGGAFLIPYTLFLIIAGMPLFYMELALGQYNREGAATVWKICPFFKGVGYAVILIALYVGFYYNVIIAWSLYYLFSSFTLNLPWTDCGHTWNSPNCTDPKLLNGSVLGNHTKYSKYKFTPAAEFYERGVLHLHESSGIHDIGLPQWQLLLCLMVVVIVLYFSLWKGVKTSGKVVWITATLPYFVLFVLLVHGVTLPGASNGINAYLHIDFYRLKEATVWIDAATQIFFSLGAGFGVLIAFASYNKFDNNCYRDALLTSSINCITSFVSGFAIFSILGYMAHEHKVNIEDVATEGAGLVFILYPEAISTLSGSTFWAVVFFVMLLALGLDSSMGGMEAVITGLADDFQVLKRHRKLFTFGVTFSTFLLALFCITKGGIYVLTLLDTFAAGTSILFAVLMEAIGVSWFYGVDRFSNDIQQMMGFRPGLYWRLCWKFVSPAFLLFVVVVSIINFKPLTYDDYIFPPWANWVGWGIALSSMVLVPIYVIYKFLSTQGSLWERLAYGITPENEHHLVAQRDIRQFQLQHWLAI
T6 sequence (Q01959 whole entry): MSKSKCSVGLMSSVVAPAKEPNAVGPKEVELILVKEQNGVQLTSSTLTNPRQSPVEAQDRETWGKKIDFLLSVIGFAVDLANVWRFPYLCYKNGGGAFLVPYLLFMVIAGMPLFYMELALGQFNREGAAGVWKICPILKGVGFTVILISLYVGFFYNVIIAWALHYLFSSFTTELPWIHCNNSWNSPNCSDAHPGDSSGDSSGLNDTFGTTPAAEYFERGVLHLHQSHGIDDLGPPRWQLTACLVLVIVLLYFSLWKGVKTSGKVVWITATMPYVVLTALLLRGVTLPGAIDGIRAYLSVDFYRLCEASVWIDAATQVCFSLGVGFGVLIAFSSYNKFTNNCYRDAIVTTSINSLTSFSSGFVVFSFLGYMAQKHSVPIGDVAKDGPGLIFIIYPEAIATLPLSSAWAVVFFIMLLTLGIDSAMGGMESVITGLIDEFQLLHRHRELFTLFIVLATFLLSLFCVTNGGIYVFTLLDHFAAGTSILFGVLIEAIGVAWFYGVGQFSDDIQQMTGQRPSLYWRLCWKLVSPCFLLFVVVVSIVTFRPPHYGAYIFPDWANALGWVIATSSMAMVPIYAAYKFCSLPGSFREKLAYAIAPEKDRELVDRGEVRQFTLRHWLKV
Sigma intracellular receptor 2 (Homo sapiens, UniProt Q5BJF2), sequence (Q5BJF2 whole entry): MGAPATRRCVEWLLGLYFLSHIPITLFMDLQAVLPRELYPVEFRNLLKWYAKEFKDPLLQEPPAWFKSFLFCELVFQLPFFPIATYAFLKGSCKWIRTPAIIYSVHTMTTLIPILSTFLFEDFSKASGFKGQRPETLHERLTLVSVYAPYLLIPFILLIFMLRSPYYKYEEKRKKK
Muscarinic acetylcholine receptor M1, sequence (P11229 whole entry): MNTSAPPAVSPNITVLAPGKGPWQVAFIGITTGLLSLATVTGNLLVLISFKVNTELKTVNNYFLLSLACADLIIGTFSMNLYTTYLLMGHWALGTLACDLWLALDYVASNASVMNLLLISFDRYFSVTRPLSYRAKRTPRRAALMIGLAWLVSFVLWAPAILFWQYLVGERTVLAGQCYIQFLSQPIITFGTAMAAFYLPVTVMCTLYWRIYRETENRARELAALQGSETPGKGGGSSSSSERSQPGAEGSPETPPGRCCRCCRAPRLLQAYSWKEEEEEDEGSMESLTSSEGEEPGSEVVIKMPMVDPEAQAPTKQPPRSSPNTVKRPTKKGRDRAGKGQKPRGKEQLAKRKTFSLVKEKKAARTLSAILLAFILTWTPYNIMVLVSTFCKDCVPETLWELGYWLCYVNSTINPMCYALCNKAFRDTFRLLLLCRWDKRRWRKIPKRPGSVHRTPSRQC
Muscarinic acetylcholine receptor M2, sequence (P08172 whole entry): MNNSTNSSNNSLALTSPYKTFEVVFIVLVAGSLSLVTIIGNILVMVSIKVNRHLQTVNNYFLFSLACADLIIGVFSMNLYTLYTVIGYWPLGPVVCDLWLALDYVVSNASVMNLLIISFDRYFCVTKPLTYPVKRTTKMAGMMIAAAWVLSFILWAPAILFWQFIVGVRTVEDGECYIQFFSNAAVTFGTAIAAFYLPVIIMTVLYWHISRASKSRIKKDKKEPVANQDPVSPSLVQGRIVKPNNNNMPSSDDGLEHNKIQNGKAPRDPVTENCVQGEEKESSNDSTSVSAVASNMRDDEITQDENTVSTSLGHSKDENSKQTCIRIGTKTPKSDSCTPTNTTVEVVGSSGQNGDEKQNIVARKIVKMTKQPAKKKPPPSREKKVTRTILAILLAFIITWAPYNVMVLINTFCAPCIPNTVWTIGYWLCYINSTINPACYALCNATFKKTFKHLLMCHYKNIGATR
Histamine H2 receptor (Homo sapiens), sequence (P25021 whole entry): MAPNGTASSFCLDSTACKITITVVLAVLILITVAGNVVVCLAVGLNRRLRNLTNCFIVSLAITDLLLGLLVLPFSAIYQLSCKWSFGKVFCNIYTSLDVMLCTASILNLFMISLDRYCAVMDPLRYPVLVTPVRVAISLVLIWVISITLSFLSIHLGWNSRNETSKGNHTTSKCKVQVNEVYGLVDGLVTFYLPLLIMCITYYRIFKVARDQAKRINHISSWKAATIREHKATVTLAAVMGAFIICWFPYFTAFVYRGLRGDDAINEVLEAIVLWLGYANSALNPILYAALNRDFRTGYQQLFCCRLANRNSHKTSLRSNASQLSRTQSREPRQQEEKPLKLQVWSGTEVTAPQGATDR
Muscarinic acetylcholine receptor M4, sequence (P08173 whole entry): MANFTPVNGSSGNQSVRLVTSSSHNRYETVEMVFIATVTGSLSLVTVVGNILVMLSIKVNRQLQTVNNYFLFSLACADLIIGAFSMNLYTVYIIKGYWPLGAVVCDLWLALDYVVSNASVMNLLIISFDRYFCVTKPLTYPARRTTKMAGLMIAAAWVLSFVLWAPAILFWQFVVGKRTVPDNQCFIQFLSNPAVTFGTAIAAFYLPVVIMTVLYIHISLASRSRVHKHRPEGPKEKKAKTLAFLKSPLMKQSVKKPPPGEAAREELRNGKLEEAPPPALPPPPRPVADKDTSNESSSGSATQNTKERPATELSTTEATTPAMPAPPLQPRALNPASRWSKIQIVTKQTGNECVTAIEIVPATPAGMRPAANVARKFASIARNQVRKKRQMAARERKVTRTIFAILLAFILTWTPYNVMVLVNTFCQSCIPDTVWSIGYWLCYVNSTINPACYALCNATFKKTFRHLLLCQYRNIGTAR
Histamine H3 receptor, sequence (Q9QYN8 whole entry): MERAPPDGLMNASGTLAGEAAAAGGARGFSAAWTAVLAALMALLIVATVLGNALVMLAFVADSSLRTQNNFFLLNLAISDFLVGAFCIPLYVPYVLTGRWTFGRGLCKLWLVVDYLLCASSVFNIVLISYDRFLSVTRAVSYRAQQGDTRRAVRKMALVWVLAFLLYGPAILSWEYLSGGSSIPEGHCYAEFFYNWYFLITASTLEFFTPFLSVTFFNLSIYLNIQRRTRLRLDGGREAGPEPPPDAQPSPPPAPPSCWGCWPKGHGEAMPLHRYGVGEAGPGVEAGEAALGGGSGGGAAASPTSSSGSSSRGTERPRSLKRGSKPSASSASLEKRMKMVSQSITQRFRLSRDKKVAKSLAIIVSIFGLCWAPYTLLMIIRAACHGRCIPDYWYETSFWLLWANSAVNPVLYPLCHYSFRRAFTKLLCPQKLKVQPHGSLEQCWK
Muscarinic acetylcholine receptor M3, sequence (P20309 whole entry): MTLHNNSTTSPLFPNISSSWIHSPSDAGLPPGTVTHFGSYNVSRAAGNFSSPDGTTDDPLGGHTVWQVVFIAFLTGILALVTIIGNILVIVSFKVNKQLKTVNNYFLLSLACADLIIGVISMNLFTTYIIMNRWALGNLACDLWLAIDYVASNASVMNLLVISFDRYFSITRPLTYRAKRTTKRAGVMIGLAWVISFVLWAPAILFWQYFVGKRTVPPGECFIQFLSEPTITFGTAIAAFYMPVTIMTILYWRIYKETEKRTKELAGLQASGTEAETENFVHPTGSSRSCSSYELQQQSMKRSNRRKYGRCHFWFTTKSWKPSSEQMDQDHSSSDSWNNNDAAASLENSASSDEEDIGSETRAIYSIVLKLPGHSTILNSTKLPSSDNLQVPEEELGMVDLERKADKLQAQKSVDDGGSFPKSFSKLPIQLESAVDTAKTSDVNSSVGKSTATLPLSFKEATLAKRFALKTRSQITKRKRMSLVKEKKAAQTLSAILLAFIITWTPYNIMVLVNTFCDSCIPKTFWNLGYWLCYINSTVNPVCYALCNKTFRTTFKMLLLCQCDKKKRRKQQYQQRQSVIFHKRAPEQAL

A word on the Ki: it is a dissociation constant, usually derived from enzyme kinetics or from competition with a known ligand. For the compound `CN(C)CCCN1c2ccccc2CCc2ccccc21` [IMIPRAMINE], the figures for the Ki in [1] and in assay [2] were 2.11 µM and 0.343 µM, respectively.

In turn, `CNCCC(Oc1ccc(C(F)(F)F)cc1)c1ccccc1` (configuration not stated) [FLUOXETINE] displayed a Ki in assay [1] of 16.1 µM.

As to `COc1ccc2c(CCCCN3C4CCCC3CCC4)cccc2c1`, the figures for the inhibition constant (Ki) in [3] and in assay [5] were 0.226 µM and 0.00103 µM, respectively. Moreover, the Ratio Ki in [4] was 317.

In general, IC50 refers to the concentration needed to halve the response being measured. A high value points to a need for much substance. As to `CN(C)CC1CCOC1(c1ccccc1)c1ccccc1` (configuration not stated) [BLARCAMESINE], the IC50 in assay [6] stood at 3.3 µM; in [7], 3.3 µM; in assay [8], 3.3 µM; in [9], 0.86 µM; in assay [10], 3.3 µM.

On to `c1ccc(CO[C@H](c2ccccc2)[C@H]2CCN(Cc3ccccc3)Cc3ccccc32)cc1`, for which the Ratio Ki in assay [11] is more than 52. Further, the Ki in [12] was 0.009 µM; in [13] it was 0.668 µM.

Consider `c1ccc(CN2CCC3(CCc4ccccc4S3)CC2)cc1`, for which the inhibition constant (Ki) turned out to be 0.416 µM in [14] and 0.0005 µM in assay [15].

As to `C=C1CCN2Cc3ccc(OC)cc3[C@H]3CCCC[C@]32C1`, the Ki turned out to be 0.008 µM in assay [9], 0.531 µM in assay [16] and 0.152 µM in assay [17].

Turning to `c1ccc(OCc2cc(OCCNC3CCC3)no2)cc1`, the Ratio Ki in assay [18] came out at 990. Also, the Ki in assay [19], in assay [20] and in assay [21] was more than 7 µM in each case.

For the compound `O=C(COc1ccc(Cl)c(Cl)c1)NCCN1CCOCC1`, the inhibition constant (Ki) in [22] worked out at 0.042 µM; in assay [13] it was 1.5 µM.

As usually defined, the inhibition is the relative decrease from the control value, in per cent. Consider `Fc1ccc(CN2CCC(Cc3ccccc3)c3ccccc3C2)cc1` (configuration not stated), for which the inhibition in assay [23] is 71%; in [24], 59%; in [25] it was 91%; in [26], 85%. Moreover, the Ratio Ki in [11] was more than 52. The Ki in assay [12] turned out to be 0.0071 µM; in assay [13], 0.889 µM.

For `c1ccc(CC2CCN(CC3CCCCC3)Cc3ccccc32)cc1` (configuration not stated), in [11], the Ratio Ki was more than 52. Further, the Ki in assay [12] stood at 0.0024 µM; in [13] it was 0.125 µM.

For the compound `Clc1ccc(-c2noc(CCCCN3CCOCC3)n2)c(Cl)c1`, the results for the Ki (in assay [27]; at Histamine H3 receptor; in assay [28]) were 0.00028 µM, 0.0232 µM and 0.164 µM, respectively. The Ratio Ki in the assay filed under Cavia porcellus came to 587.

With `CCN(CC)CCOCCOC(=O)C1(c2ccccc2)CCCC1` [CARBETAPENTANE], the inhibition constant Ki in [9] is 0.129 µM; in [17], 1.95 µM.

As for `CCOC1(c2ncc(-c3ccncc3)s2)CCN(Cc2ccccc2)CC1`, the Ratio Ki in [11] was more than 1500. Besides, the Ki in [12] came to 0.0019 µM; in [13], 3.6 µM.

With `CCCN1CCC(c2cccc(S(C)(=O)=O)c2)CC1` [PRIDOPIDINE], the affinity in assay [29] corresponds to a Ki of 0.0817 µM.

With `COc1ccc(CCN2CCN(CCCc3ccccc3)CC2)cc1OC` [[11C]SA4503], the half-inhibitory concentration (IC50) in assay [30] came out at 1.8 µM.

Take `CCOC1(c2ncc(-c3cccnc3)s2)CCN(Cc2ccccc2)CC1`: the Ratio Ki in [11] is more than 1500. Further, the Ki in [12] came out at 0.0013 µM; in assay [13], 2.13 µM.

As to `C#CCN(C)CCCOc1ccc(Cl)cc1Cl` [CLORGILINE], the Ki in assay [31] was 0.0029 µM; in assay [32] it was 0.505 µM.

Compound `CC(C)=CCN1CCC2(C)c3cc(O)ccc3CC1C2C` (configuration not stated) [PENTAZOCINE] came in with a Ki in assay [33] of 0.0022 µM.
